From PMC3388080 (PLoS ONE, 2012)
Where two headings read alike, the source gives them in different places.

Experiments:
rHCRTR1 [1] = target: T1, rHCRTR1 (Rattus norvegicus, UniProt P56718); assay: Inhibition of [^3H]almorexant binding to HEK293-rHCRTR1 membranes; conditions: read-out: Ki
T1 construct: expressed in transfected cells; host or cells: HEK293 (transient transfection, pCI-Neo vector), membrane preparation
T1 sequence (P56718 1-416): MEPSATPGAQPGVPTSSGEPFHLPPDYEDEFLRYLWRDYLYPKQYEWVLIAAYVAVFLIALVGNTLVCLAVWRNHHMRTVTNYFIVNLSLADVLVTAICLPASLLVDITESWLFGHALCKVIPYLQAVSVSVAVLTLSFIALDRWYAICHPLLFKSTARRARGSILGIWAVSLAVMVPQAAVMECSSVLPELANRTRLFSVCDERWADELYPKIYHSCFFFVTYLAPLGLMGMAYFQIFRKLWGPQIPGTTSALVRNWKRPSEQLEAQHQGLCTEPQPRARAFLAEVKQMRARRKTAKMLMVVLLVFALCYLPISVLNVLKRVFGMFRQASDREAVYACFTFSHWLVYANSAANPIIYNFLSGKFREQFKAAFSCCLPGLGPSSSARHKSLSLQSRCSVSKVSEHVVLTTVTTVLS
Excerpt: (§1) The rat cDNAs encoding HCRTR1 (Accession No. P56718) and HCRTR2 (Accession No. P56719) were subcloned into pCI-Neo expression vectors (Promega, Madison, WI) and used to transfect HEK293 cells (acquired commercially from ATCC-LGC, Molsheim, France) as previously described.

rHCRTR2 = target: T2, rHCRTR2 (Rattus norvegicus, UniProt P56719); assay: Inhibition of [^3H]almorexant binding to HEK293-rHCRTR2 membranes
T2 construct: expressed in transfected cells; host or cells: HEK293 (transient transfection, pCI-Neo vector), membrane preparation
Excerpt: as §1

in vivo = conditions: rat, in vivo
Procedure: (§2) Pharmacokinetic analyses were performed at F. Hoffmann-La Roche as described in supporting Materials and Methods S1.
(§3) Cmax, maximum concentration; Tmax, time at which maximum concentration was observed; AUC, area under the plasma concentration vs. time curve; CL, clearance; Vss, volume of distribution at steady state; T1/2, terminal half-life; F, bioavailability; Fu, Fraction unbound. Plasma values are mean, n=2.

in vitro [2] = conditions: human, plasma
Procedure: as §2

in vitro [3] = conditions: rat, plasma
Procedure: as §2, §3

[4] = Stability in human plasma
Procedure: as §2

Stability in rat plasma = assay: Stability in rat plasma
Procedure: as §2

rHCRTR1 [5] = target: T1, rHCRTR1; set-up: method as in PMID 14691055; conditions: cited from earlier work
[6] = set-up: method as in PMID 19363060; conditions: 30 mg/kg, cited from earlier work
HCRTR1 = target: T3, HCRTR1 (Rattus norvegicus, UniProt P56718); set-up: method as in PMID 19363060; conditions: subcutaneous 30 mg/kg; tenia tecta; cited from earlier work
T3 construct: from tissue; host or cells: coronal brain sections of male Sprague-Dawley rats (locus coeruleus)
T3 sequence (P56718 1-416): T1 sequence (P56718 1-416)

T2 sequence (P56719 whole entry): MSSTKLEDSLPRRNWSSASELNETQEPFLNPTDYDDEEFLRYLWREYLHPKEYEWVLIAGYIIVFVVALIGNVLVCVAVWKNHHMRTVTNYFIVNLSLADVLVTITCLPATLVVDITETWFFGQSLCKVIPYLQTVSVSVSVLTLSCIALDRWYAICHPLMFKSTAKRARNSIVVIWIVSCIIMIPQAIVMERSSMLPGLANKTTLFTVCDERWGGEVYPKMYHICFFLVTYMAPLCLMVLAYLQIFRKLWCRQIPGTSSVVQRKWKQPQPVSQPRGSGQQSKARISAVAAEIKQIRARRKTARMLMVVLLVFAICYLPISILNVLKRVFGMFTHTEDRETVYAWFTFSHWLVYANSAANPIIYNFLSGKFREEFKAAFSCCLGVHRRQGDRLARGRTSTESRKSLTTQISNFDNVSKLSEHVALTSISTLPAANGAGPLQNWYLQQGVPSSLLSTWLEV

Cc1cc(NC(=O)Nc2ccc(N(C)C)cc2)c2cc(F)cc(F)c2n1 [SB-408124, 1-(6,8-difluoro-2-methyl-quinolin-4-yl)-3-(4-dimethylamino-phenyl)-urea]
Ki (rHCRTR1 [1]): 45.7 ± 4.1 nM | Ki (rHCRTR2): 5370 ± 2200 nM | AUC/Dose (in vivo; Wistar, iv): 7996.40 ng/h/mL | Tmax (in vivo; Wistar, iv): 0 h | Vd (in vivo; Wistar, iv): 0.2 L/kg | clearance (in vivo; Wistar, iv): 2.1 mL/min/kg | half-life (in vivo; Wistar, iv): 1.12 h | Cmax/Dose (in vivo; Wistar, iv, 12.1 mg/kg): 4738.30 ng/mL | AUC/Dose (in vivo; Wistar, po): 3455.70 ng/h/mL | Tmax (in vivo; Wistar, po): 2.67 h | bioavailability (in vivo; Wistar, po): 43.2% | half-life (in vivo; Wistar, po): 1.95 h | Cmax/Dose (in vivo; Wistar, po, 18.16 mg/kg): 704.8 ng/mL | Vss (in words) (in vivo): low | systemic plasma clearance (in words) (in vivo): low | oral bioavailability (in words) (in vivo; po): medium | fraction unbound (in vitro [2]): 0.003 | fraction unbound (in vitro [3]): < 0.001 | stability in plasma ([4]; 1 h): 94% | stability in plasma ([4]; 4 h): 88% | stability in plasma (Stability in rat plasma; 1 h): 101% | stability in plasma (Stability in rat plasma; 4 h): 107% | Ki (rHCRTR1 [5]): 26.9 nM | brain-to-plasma ratio ([6]; calculated from Cmax values): 0.012 | Cmax ([6]; read-out: plasma Cmax): 84.3 µM | HCRTR1 occupancy (HCRTR1): 90%
